Here are results for four molecules from article PMC4697807, “Novel Zn^2+ Modulated GPR39 Receptor Agonists Do Not Drive Acute Insulin Secretion in Rodents” (PLoS ONE, 2015).

The target in one assay is T1, GPR39 (Homo sapiens, UniProt O43194).
T1 sequence (O43194 1-453): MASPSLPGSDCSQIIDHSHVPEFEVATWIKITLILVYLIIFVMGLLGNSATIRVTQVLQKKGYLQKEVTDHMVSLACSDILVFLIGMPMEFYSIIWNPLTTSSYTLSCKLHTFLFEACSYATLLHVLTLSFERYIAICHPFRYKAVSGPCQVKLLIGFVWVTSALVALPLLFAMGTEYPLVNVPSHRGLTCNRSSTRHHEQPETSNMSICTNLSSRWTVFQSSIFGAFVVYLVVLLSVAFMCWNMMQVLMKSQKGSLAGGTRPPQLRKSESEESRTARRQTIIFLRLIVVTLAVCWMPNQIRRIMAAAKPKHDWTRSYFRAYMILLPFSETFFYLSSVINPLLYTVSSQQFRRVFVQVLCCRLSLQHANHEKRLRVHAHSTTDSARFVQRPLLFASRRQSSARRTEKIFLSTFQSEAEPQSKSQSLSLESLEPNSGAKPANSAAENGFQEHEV
In words: Back-scattering interferometry (BSI) binding assay, HEK293s-hGPR39 membranes. Set-up: Full length human (AF034633), rat (DM091294) and mouse (BC085285) GPR39; expressed in transfected cells; host or cells: HEK293s (ATCC CRL-1573), pIRESneo3 vector, selected clones. On the procedure: Membranes (1.3 mg protein/ml) from HEK293s-hGPR39 and untransfected HEK293s cells were diluted 11-fold in 50 mM Tris, pH 7.5, 5 μM ZnCl2, 0.3% DMSO. The compounds were diluted from 10 mM in DMSO to the final maximum stock concentration of 30 μM with 50 mM Tris, pH 7.5, 5 μM ZnCl2, 24.6 mM sucrose. A 3-fold serial dilution was performed with the compounds and refractive index-matched assay buffer, 50 mM Tris, pH 7.5, 5 μM ZnCl2, 24.6 mM sucrose, 0.3% DMSO. The compound serial dilutions were mixed 1:1 with either the GPR39 or wild type membrane fractions in a 96-well polypropylene microplate (Eppendorf, Hauppauge, NY). After a 2 hour incubation at room temperature, the plate was analyzed on a pre-commercial prototype BSI instrument (Molecular Sensing, Inc., Nashville, TN). Binding signal was expressed as the phase shift in the interference fringe patterns on a CMOS camera as measured in milliradians. The data from the wild type membrane fractions was subtracted from the GPR39-expressing fractions point by point to obtain the specific binding interaction of the compounds with GPR39 and fit to one-site binding or two-site binding models using built-in models in Graphpad Prism to determine K D values for each compound.

Assay [1] can be described thus: Isothermal titration calorimetry (ITC) of compound with ZnCl2. The following applies: ITC at 30°C; single site binding model; ± SD; read-out: K D (Zn^2+-interaction). On the procedure: To determine the binding affinities of the discussed compounds for Zn^2+, isothermal titration calorimetry experiments were conducted on a MicroCal ITC-200 system (Malvern Instruments) at a temperature of 30°C. The compounds, provided as a DMSO stock solution of 10 mM, were diluted in 50 mM HEPES (pH 7.4) and 150 mM NaCl to reach a final nominal concentration of 400 μM (= 4% (v/v) final DMSO concentration). Complete titration of the compounds was typically achieved by injecting 27 x 1.3 μl aliquots of 5 mM ZnCl2 provided in a matching buffer. The thermodynamic binding parameters were extracted by non-linear regression analysis of the binding isotherms (Microcal Origin version 7.0 software package). A single site binding model was applied, yielding binding enthalpy (ΔH), stoichiometry (n), entropy (ΔS), and association constant (Ka). All experiments have been performed in triplicate to allow for error estimations.

The mark [2] stands for this setting: presence of 5 μM Zn^2+, one site binding model, read-out: K D ± SE.
Setting [3] is: Zn^2+ binding, two site binding model.

Where two headings read alike, the source gives them in different places.

Regarding `N#Cc1ccc(OCCn2ccnc2)c(OCCn2ccnc2)c1` [AZ1395, 3,4-bis-(2-imidazol-1-ylethoxy)-benzonitrile], the Kd amounted to 0.233 ± 0.07 µM on GPR39 (setting [2]) and 52.1 ± 9.1 µM in assay [1].

Turning to `Cc1nc2c(C(=O)O)cnn2c(O)c1Cc1ccc(Cl)cc1` [AZ4237, 6-[(4-chlorophenyl)methyl]-7-hydroxy-5-methyl-pyrazolo[1,5-a]pyrimidine-3-carboxylic acid], the Kd was 0.048 ± 0.018 µM on GPR39 (setting [2]) and 8.72 ± 1.06 µM in assay [1].

In the case of `Cc1nc(-c2nc3c(c(=O)[nH]2)CN(C(=O)c2cccc(Cl)c2F)CC3)cs1` [AZ7914, 6-(3-chloro-2-fluoro-benzoyl)-2-(2-methylthiazol-4-yl)-3,5,7,8-tetrahydropyrido-[4,3-d]pyrimidin-4-one], the Kd is 0.192 ± 0.085 µM at GPR39 (setting [2]) and 30.6 ± 19.1 µM in assay [1].

For the molecule `[Zn+2]` [Zn^2+], on GPR39 (setting [3]), the “pK D1 (high affinity site)” value is 6.27 and the “pK D2 (low affinity site)” value is given as 3.68. In addition, the Kd at GPR39 (Zn^2+ binding, two site binding model, read-out: K D1 (high affinity site) ± SE) stood at 0.53 µM. Moreover, the Kd at GPR39 (Zn^2+ binding, two site binding model, read-out: K D2 (low affinity site) ± SE) is 211 µM.
